Measured values as given in patent US7790766B2, “Pharmaceutical compositions of short-acting sedative hypnotic agent” (Theravance, Inc., priority 2003, dated 2010).

Test: Solubility in aqueous media
Type: physicochemical

With `CCCOC(=O)Cc1ccc(OCC(=O)N(CC)CC)c(OCC)c1` [Compound 1, [4-[(N,N-diethylcarbamoyl)methoxy]-3-ethoxyphenyl]acetic acid propyl ester] the “Solubility in aqueous media” value was “poorly, if, at all soluble”.
